The nature of one data set: log P(HCOOH) (HPLC/MS). In kind it is physicochemical. The following applies: HCOOH (formic acid); read-out: log P(HCOOH).
As to `Cn1nnnc1/C(=N\OCc1cccc(NC(=O)OCCCCCl)n1)c1ccccc1` [Example 67, 4-chlorobutyl {6-[({[(Z)-(1-methyl-1H-tetrazol-5-yl)(phenyl)methylene]amino}oxy)methyl]pyridin-2-yl}carbamate], the chromatographic logP was 3.67.

The data set is the same for the next values; noted with them: HPLC on reversed phase columns, EEC directive 79/831 Annex V.A8; pH 2.7, 0.1% formic acid in water / acetonitrile gradient.
In turn, `C=C(C)OC(=O)Nc1nc(CON=C(c2ccccc2)n2nnnc2C)cs1` [Example 104] showed a log p of 2.96.
On the same count and under the same terms, the figure for `C=C(C)OC(=O)Nc1cccc(CON=C(c2ccccc2)n2nnnc2C)n1` [Example 107] is 3.21.
The molecule `Cc1nnnn1C(=NOCc1cccc(NC(=O)C2(c3ccccc3)CC2)n1)c1ccccc1` [Example 110] yielded a log p of 2.55.
Same read-out and setting: under `Cc1nnnn1C(=NOCc1cccc(NC(=O)C(F)(F)C(F)(F)C(F)(F)C(F)(F)C(F)(F)C(F)(F)C(F)(F)F)n1)c1ccccc1` [Example 119] stands 5.93; under `Cc1nnnn1C(=NOCc1cccc(NC(=O)c2ccc(Cl)nc2)n1)c1ccccc1` [Example 121], 3.15.
The same measure, in the same setting: under `Cc1nnnn1C(=NOCc1cccc(NC(=O)CC2CC2)n1)c1ccccc1` [Example 124] stands 2.94; under `Cc1nnnn1C(=NOCc1cccc(NC(=O)CO[C@@H]2C[C@H](C)CC[C@H]2C(C)C)n1)c1ccccc1` [Example 126], 5.95.
The molecule `Cc1nnnn1C(=NOCc1cccc(NC(=O)C2CCC(=O)O2)n1)c1ccccc1` (stereo not drawn) [Example 130] gave a log p of 2.44.
Still for that read-out and setting: under `Cc1nnnn1C(=NOCc1cccc(NC(=O)COCc2ccccc2)n1)c1ccccc1` [Example 144] stands 3.73.
Same read-out and setting: under `COC(=O)CCCCC(=O)Nc1cccc(CON=C(c2ccccc2)n2nnnc2C)n1` [Example 145] stands 2.86; under `CCOC(=O)CCCC(=O)Nc1cccc(CON=C(c2ccccc2)n2nnnc2C)n1` [Example 148], 2.98.
Same read-out and setting: under `Cc1nnnn1C(=NOCc1cccc(NC(=O)CSCc2ccccc2)n1)c1ccccc1` [Example 151] stands 3.73; under `Cn1nnnc1C(=NOCc1csc(NC(=O)CC2CC2)n1)c1cccc(F)c1` [Example 170], 2.98; under `CC1CCC(C(C)C)C(OCC(=O)Nc2nc(CON=C(c3cccc(F)c3)c3nnnn3C)cs2)C1` (stereo not drawn) [Example 172], 5.47.
Take `COCCOCC(=O)Nc1nc(CON=C(c2cccc(F)c2)c2nnnn2C)cs1` [Example 183]: the log p was determined as 2.68.
As for `COCCOCCOCC(=O)Nc1nc(CON=C(c2cccc(F)c2)c2nnnn2C)cs1` [Example 186], the log p is 2.66.
The same measure, in the same setting: the figure for `Cn1nnnc1C(=NOCc1csc(NC(=O)C(F)(F)C(F)(F)C(F)(F)F)n1)c1cccc(F)c1` [Example 192] is 3.75; for `Cn1nnnc1C(=NOCc1csc(NC(=O)CSCc2ccccc2)n1)c1cccc(F)c1` [Example 194] it is 3.68; for `Cn1nnnc1C(=NOCc1csc(NC(=O)CCCOc2ccccc2)n1)c1cccc(F)c1` [Example 196] it is 3.7.
Molecule `CC(=O)OCCCCOC(=O)Nc1nc(CON=C(c2cccc(F)c2)c2nnnn2C)cs1` [Example 198] registered a log p of 3.15.
The same measure, in the same setting: under `Cn1nnnc1C(=NOCc1csc(NC(=O)CCC2CCCCC2)n1)c1ccccc1` [Example 206] stands 4.3.
Same read-out and setting: the figure for `Cn1nnnc1C(=NOCc1cccc(NC(=O)c2cccs2)n1)c1ccccc1` [Example 214] is 3.21.
Same read-out and setting: under `Cn1nnnc1C(=NOCc1cccc(NC(=O)CSCc2ccccc2)n1)c1ccccc1` [Example 218] stands 3.73.
Turning to `Cn1nnnc1C(=NOCc1cccc(NC(=O)CCCc2ccsc2)n1)c1ccccc1` [Example 221], the log p is 3.7.
Same read-out and setting: the figure for `Cc1nnnn1C(=NOCc1csc(NC(=O)CCCC2CCCCC2)n1)c1ccccc1` [Example 229] is 4.82; for `Cn1nnnc1C(=NOCc1csc(NC(=O)Cc2ccsc2)n1)c1cccc(F)c1` [Example 233] it is 3.21; for `Cn1nnnc1C(=NOCc1csc(NC(=O)OCC(Cl)(Cl)Cl)n1)c1ccccc1` [Example 245] it is 3.7.

The same data set, now with this note: HPLC on reversed phase columns, EEC directive 79/831 Annex V.A8; pH 2.7, 0.1% formic acid in water / acetonitrile gradient; read-out: log p.
Take `Cn1nnnc1/C(=N\OCc1cccc(NC(=O)OCCCCCl)n1)c1ccccc1` [Example 67, 4-chlorobutyl {6-[({[(Z)-(1-methyl-1H-tetrazol-5-yl)(phenyl)methylene]amino}oxy)methyl]pyridin-2-yl}carbamate]: the chromatographic logP turned out to be 3.67.

The same data set, now with this note: HPLC on reversed phase columns, EEC directive 79/831 Annex V.A8; pH 2.7 with 0.1% formic acid in water and acetonitrile.
Take `Cn1nnnc1C(=NOCc1csc(NC(=O)COc2ccccc2Cl)n1)c1ccccc1` [Example 247]: the log p turned out to be 3.61.
In turn, `Cn1nnnc1C(=NOCc1csc(NC(=O)c2cccc(Cl)c2)n1)c1ccccc1` [Example 248] displayed a log p of 3.73.
`Cn1nnnc1C(=NOCc1csc(NC(=O)COc2cccc(Cl)c2)n1)c1ccccc1` [Example 249] displayed a log p of 3.7.
Still for that read-out and setting: the figure for `Cn1nnnc1C(=NOCc1csc(NC(=O)COc2ccc(Cl)cc2)n1)c1ccccc1` [Example 250] is 3.68; for `CCCCc1ccc(C(=O)Nc2nc(CON=C(c3ccccc3)c3nnnn3C)cs2)cc1` [Example 268] it is 4.68; for `CCOc1ccc(C(=O)Nc2nc(CON=C(c3ccccc3)c3nnnn3C)cs2)cc1` [Example 271] it is 3.64.
On the same count and under the same terms, under `Cn1nnnc1C(=NOCc1csc(NC(=O)CC23CC4CC(CC(C4)C2)C3)n1)c1ccccc1` [Example 278] stands 4.69.
Turning to `CC1CCC(C(C)C)C(OCC(=O)Nc2nc(CON=C(c3ccccc3)c3nnnn3C)cs2)C1` (stereo not drawn) [Example 284], the log p is reported as 5.39.
Same read-out and setting: under `COCCOCC(=O)Nc1nc(CON=C(c2ccccc2)c2nnnn2C)cs1` [Example 286] stands 2.54; under `Cn1nnnc1C(=NOCc1csc(NC(=O)COc2ccccc2-c2ccccc2)n1)c1ccccc1` [Example 289], 4.32.
On the same count and under the same terms, under `COC(=O)CCCCC(=O)Nc1nc(CON=C(c2cccc(F)c2)c2nnnn2C)cs1` [Example 298] stands 2.94.
The molecule `COCCOC(=O)Nc1nc(CON=C(c2cccc(F)c2)c2nnnn2C)cs1` [Example 301] came in with a log p of 2.66.
Still for that read-out and setting: the figure for `Cc1ccc(C(=O)Nc2cccc(CON=C(c3ccccc3)c3nnnn3C)n2)cc1` [Example 306] is 3.65.
Molecule `Cc1ccccc1C(=O)Nc1cccc(CON=C(c2ccccc2)c2nnnn2C)n1` [Example 307] had a log p of 3.5.
The same measure, in the same setting: the figure for `CCOc1cccc(C(=O)Nc2cccc(CON=C(c3ccccc3)c3nnnn3C)n2)c1` [Example 313] is 3.79.
The same measure, in the same setting: the figure for `COc1ccccc1C(=O)Nc1nc(CON=C(c2ccccc2)c2nnnn2C)cs1` [Example 322] is 3.5.
The same measure, in the same setting: the figure for `Cn1nnnc1C(=NOCc1csc(NC(=O)c2ccccc2OC(F)(F)F)n1)c1ccccc1` [Example 325] is 3.61; for `Cc1ccccc1C(=O)Nc1nc(CON=C(c2ccccc2)c2nnnn2C)cs1` [Example 327] it is 3.41.
Consider `Cn1nnnc1C(=NOCc1cccc(NC(=O)c2ccccc2OC(F)(F)F)n1)c1cccc(F)c1` [Example 328], for which the log p came out at 3.9.
Same read-out and setting: the figure for `Cn1nnnc1C(=NOCc1cccc(NC(=O)c2ccc(F)cc2)n1)c1cccc(F)c1` [Example 329] is 3.57.
Still for that read-out and setting: under `Cc1ccccc1C(=O)Nc1cccc(CON=C(c2cccc(F)c2)c2nnnn2C)n1` [Example 331] stands 3.61.
Still for that read-out and setting: under `Cn1nnnc1C(=NOCc1csc(NC(=O)c2ccc(Cl)cc2)n1)c1ccccc1` [Example 333] stands 3.74.
The molecule `Cc1ccc(C(=O)Nc2nc(CON=C(c3ccccc3)c3nnnn3C)cs2)cc1` [Example 335] returned a log p of 3.59.
The same measure, in the same setting: the figure for `Cn1nnnc1C(=NOCc1csc(NC(=O)c2cc(F)cc(F)c2)n1)c1ccccc1` [Example 340] is 3.63; for `COc1ccccc1C(=O)Nc1cccc(CON=C(c2cccc(F)c2)c2nnnn2C)n1` [Example 345] it is 3.79; for `Cc1ccc(C(=O)Nc2cccc(CON=C(c3cccc(F)c3)c3nnnn3C)n2)c(Cl)c1` [Example 354] it is 3.9.
In the case of `Cn1nnnc1C(=NOCc1cccc(NC(=O)c2cccnc2Cl)n1)c1cccc(F)c1` [Example 360], the log p turned out to be 2.94.
Same read-out and setting: under `Cn1nnnc1C(=NOCc1cccc(NC(=O)c2ccccc2Cl)n1)c1cccc(F)c1` [Example 362] stands 3.57.
Still for that read-out and setting: under `Cn1nnnc1C(=NOCc1cccc(NC(=O)c2ccccc2Br)n1)c1cccc(F)c1` [Example 365] stands 3.59.
On the same count and under the same terms, under `Cn1nnnc1C(=NOCc1cccc(NC(=O)c2ccccc2F)n1)c1cccc(F)c1` [Example 366] stands 3.65; under `C#CCCOC(=O)Nc1cccc(CON=C(c2cccc(F)c2)c2nnnn2C)n1` [Example 374], 3.21.
